Measured values published in US8008329B2 (Dong Wha Pharmaceutical Co., Ltd., priority 2008, dated 2011).
Marks after values point to notes of the source that are not given here.

System: osteoclast differentiation
Experiment: Osteoclast differentiation in co-culture of mouse bone marrow cells and ST2 cells, TRAP staining (Examples 8-9)
Type: cell-based
Settings: for % number of osteoclast (vs. solvent control group): 0.1 μM each, day 7; for activity at 0.1 µM: Mus musculus, Osteoclast, 168 h, Individual treatment (compounds), day 7, read-out: % number of osteoclast (vs. solvent control group)
How it was run: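 Bone marrow cells from 6-8-week male ddY mice were co-cultured with ST2 stromal cells under 10^−8 M vitamin D3 and 10^−8 M dexamethasone, with compounds at 0.1 μM final (0.1% DMSO control), refreshed on days 3 and 5. On day 7, TRAP-positive osteoclasts with ≥6 nuclei were counted and expressed as % of solvent control (n=4).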

[1] = Combination treatment (alendronic acid + compounds)
[2] = Combination treatment (risedronic acid + compounds)

SMILES	% number of osteoclast (vs. solvent control group) [1]	% number of osteoclast (vs. solvent control group) [2]	activity at 0.1 µM [%]
CN1CCN(c2sc(N3CCOCC3)nc2-c2ccc(OCCCCCOc3ccc(C(=N)NO)cc3)cc2)CC1 [Compound 289, N-hydroxy-4-(5-{4-[5-(4-methyl-piperazin-1-yl)-2-morpholine-4-yl-thiazol-4-yl]-phenoxy}-pentyloxy)-benzamidine]	21 ± 7.4^b %	10 ± 3.1^ac %	36 ± 9.1
CC(C)C(=O)N(C)c1nc(-c2ccc(OCCCCCOc3ccc(C(=N)NO)cc3)cc2)c(CCN2CCOCC2)s1 [Compound 268, N-hydroxy-4-(5-{4-[2-(isobutyryl-methyl-amino)-5-(2-morpholin-4-yl-ethyl)-thiazol-4-yl]-phenoxy}-pentyloxy)-benzamidine]	28 ± 1.7^b %	17 ± 3.4^ac %	52 ± 9.1
Cc1nc(-c2ccc(OCCCCCOc3ccc(C(=N)NO)cc3)cc2)c(CCNC(C)(C)C)s1 [Compound 234, N-hydroxy-4-(5-{4-[5-(2-tert-butylamino-ethyl)-2-methyl-thiazol-4-yl]-phenoxy}-pentyloxy)-benzamidine]	30 ± 6.1^b %	22 ± 4.0^ac %	44 ± 7.5
COCCN(CCOC)c1nc(-c2ccc(OCCCCCOc3ccc(C(=N)NO)cc3)cc2)c(C)s1 [Compound 122, N-hydroxy-4-[5-(4-{2-[bis-(2-methoxyethyl) -amino]-5-methyl-1,3-thiazol-4-yl}phenoxy)pentyloxy]-benzamidine]	37 ± 8.1^ab %	49 ± 7.3^ac %	71 ± 4.4
CCCCc1sc(N(C)CCN2CCOCC2)nc1-c1ccc(OCCCCCOc2ccc(C(=N)NO)cc2)cc1 [Compound 144, N-hydroxy-4-[5-(4-{5-butyl-2-[methyl-(2-morpholinoethyl)amino]-1,3-thiazol-4-yl}phenoxy)pentyloxy]-benzamidine]	44 ± 10.5^ab %	37 ± 4.3^ac %	82 ± 6.7
CCN(Cc1ccccc1)c1nc(-c2ccc(OCCCCCOc3ccc(C(=N)NO)cc3)cc2)c(C)s1 [Compound 127, N-hydroxy-4-[5-{4-[2-(benzyl-ethyl-amino)-5-methyl-1,3-thiazol-4-yl]phenoxy}pentyloxy]-benzamidine]	37 ± 6.8^ab %	33 ± 7.3^ac %	75 ± 14.3
N=C(NO)c1ccc(OCCCCCOc2ccc(-c3csc(C4CCCCC4)n3)cc2)cc1 [Compound 8, N-hydroxy-4-{5-[4-(2-cyclohexyl-1,3-thiazol-4-yl)phenoxy]pentyloxy}-benzamidine]	22 ± 3.4^ab %	27 ± 3.8^ac %	65 ± 10.4
N=C(NO)c1ccc(OCCCCCOc2ccc(-c3nc(-c4ccccc4)sc3Cc3ccccc3)cc2)cc1 [Compound 40, N-hydroxy-4-{5-[4-(5-benzyl-2-phenyl-1,3-thiazol-4-yl)phenoxy]pentyloxy}-benzamidine]	28 ± 4.1^ab %	20 ± 3.4^ac %	66 ± 7.1
Cc1sc(NC(=O)C(C)C)nc1-c1ccc(OCCCCCOc2ccc(C(=N)NO)cc2)cc1 [Compound 69, N-hydroxy-4-{5-[4-(2-(isobutyryl)amino-5-methyl-1,3-thiazol-4-yl)phenoxy]pentyloxy}-benzamidine]	49 ± 7.8^ab %	44 ± 1.4^ac %	80 ± 11.6
CN(Cc1ccncc1)c1nc(-c2ccc(OCCCCCOc3ccc(C(=N)NO)cc3)cc2)c(CN2CCOCC2)s1 [Compound 309, N-hydroxy-4-(5-{4-[2-(methyl-pyridin-4-ylmethyl-amino)-5-morpholin-4-ylmethyl-thiazol-4-yl]-phenoxy}-pentyloxy)-benzamidine]	13 ± 5.1^ab %	8 ± 3.0^ac %	50 ± 6.1
N=C(NO)c1ccc(OCCCCCOc2ccc(-c3nc(N4CCOCC4)sc3CCN3CCSCC3)cc2)cc1 [Compound 273, N-hydroxy-4-(5-{4-[2-morpholin-4-yl-5-(2-thiomorpholin-4-yl-ethyl)-thiazol-4-yl]-phenoxy}-pentyloxy)-benzamidine]	25 ± 4.5^ab %	11 ± 2.9^ac %	53 ± 3.4
CCN(C)c1nc(-c2ccc(OCCCCCOc3ccc(C(=N)NO)cc3)cc2)c(CN2CCOCC2)s1 [Compound 311, N-hydroxy-4-(5-{4-[2-(ethyl-methyl-amino)-5-morpholin-4-ylmethyl-thiazol-4-yl]-phenoxy}-pentyloxy)-benzamidine]	21 ± 4.2^b %	12 ± 5.8^ac %	46 ± 10.7
Cc1sc(NC(=N)N)nc1-c1ccc(OCCCCCOc2ccc(C(=N)NO)cc2)cc1 [Compound 59, N-hydroxy-4-{5-[4-(2-guanidino-5-methyl-1,3-thiazol-4-yl)phenoxy]pentyloxy}-benzamidine]	34 ± 2.2^ab %	33 ± 5.1^ac %	55 ± 6.5
Cc1nc(-c2ccc(OCCCCOc3ccc(C(=N)NO)cc3)cc2)c(C(C)C)s1 [Compound 194, N-hydroxy-4-{4-[4-(5-isopropyl-2-methyl-1,3-thiazol-4-yl)phenoxy]butoxy}-benzamidine]	33 ± 7.1^ab %	30 ± 7.0^ac %	74 ± 10.1
Cc1nc(-c2ccc(OCCCCCOc3ccc(C(=N)NO)cc3)cc2)c(CCCl)s1 [Compound 42, N-hydroxy-4-{5-[4-(5-(2-chloro-ethyl)-2-methyl-1,3-thiazol-4-yl)phenoxy]pentyloxy}-benzamidine]	33 ± 1.9^ab %	32 ± 8.0^ac %	69 ± 11.4
Cc1nc(-c2ccc(OCCCCCOc3ccc(C(=N)NO)cc3)cc2)c(CCN(CCO)CCO)s1 [Compound 225, N-hydroxy-4-{5-[4-(5-{2-[bis-(2-hydroxy-ethyl)-amino]-ethyl}-2-methyl-thiazol-4-yl)-phenoxy]-pentyloxy}-benzamidine]	50 ± 4.8^ab %	48 ± 4.9^ac %	70 ± 7.1
N=C(NO)c1ccc(OCCCCCOc2ccc(-c3nc(N4CCOCC4)sc3CC3CCCC3)cc2)cc1 [Compound 168, N-hydroxy-4-{5-[4-(5-cyclopentylmethyl-2-morpholino-1,3-thiazol-4-yl)phenoxy]pentyloxy}-benzamidine]	39 ± 5.2^ab %	29 ± 9.7^ac %	70 ± 9.1
Cc1nc(-c2ccc(OCc3ccccc3COc3ccc(C(=N)NO)cc3)cc2)c(C(C)C)s1 [Compound 208, N-hydroxy-4-{2-[4-(5-isopropyl-2-methyl-thiazol-4-yl)-phenoxymethyl]-benzyloxy}-benzamidine]	75 ± 6.3%	67 ± 6.5^ac %	92 ± 5.8
CCc1sc(N(CC)CCN2CCOCC2)nc1-c1ccc(OCCCCCOc2ccc(C(=N)NO)cc2)cc1 [Compound 132, N-hydroxy-4-[5-(4-{5-ethyl-2-[ethyl-(2-morpholinoethyl)-amino]-1,3-thiazol-4-yl}phenoxy)pentyloxy]-benzamidine]	37 ± 8.3^ab %	30 ± 3.4^ac %	62 ± 7.7
N=C(NO)c1ccc(OCCCCCOc2ccc(-c3nc(-c4ccccc4)sc3CCN3CCOCC3)cc2)cc1 [Compound 254, N-hydroxy-4-(5-{4-[5-(2-morpholin-4-yl-ethyl)-2-phenyl-thiazol-4-yl]-phenoxy}-pentyloxy)-benzamidine]	29 ± 6.3^b %	11 ± 2.5^ac %	40 ± 8.3
C=Cc1sc(N)nc1-c1ccc(OCCCCCOc2ccc(C(=N)NO)cc2)cc1 [Compound 78, N-hydroxy-4-{5-[4-(5-vinyl-2-amino-1,3-thiazol-4-yl)phenoxy]pentyloxy}-benzamidine]	36 ± 4.2^ab %	20 ± 1.7^a %	67 ± 2.1
Cc1nc(-c2ccc(OCCCCCOc3ccc(C(=N)NO)cc3)cc2)c(CNC2CC2)s1 [Compound 307, N-hydroxy-4-{5-[4-(5-cyclopropylaminomethyl-2-methyl-thiazol-4-yl)-phenoxy]-pentyloxy}-benzamidine]	30 ± 3.0^b %	16 ± 4.8^ac %	43 ± 8.9
Cc1nc(-c2ccc(OCC=CCOc3ccc(C(=N)NO)cc3)cc2)c(C(C)C)s1 [Compound 184, N-hydroxy-4-{4-[4-(5-isopropyl-2-methyl-1,3-thiazol-4-yl)-phenoxy]-but-2-enyloxy}-benzamidine]	38 ± 3.7^ab %	38 ± 6.9^ac %	62 ± 4.6
CCc1nc(-c2ccc(OCCCCCOc3ccc(C(=N)NO)cc3)cc2)c(CCN2CCOCC2)s1 [Compound 255, N-hydroxy-4-(5-{4-[2-ethyl-5-(2-morpholin-4-yl-ethyl)-thiazol-4-yl]-phenoxy}-pentyloxy)-benzamidine]	18 ± 1.7^ab %	12 ± 3.1^ac %	50 ± 3.9
